Columns and labels:
Type in all cases: in vivo
[1] = system: Echinochloa crus-galli (ECHCG); assay: Post-emergence biological efficacy, glasshouse pot test; settings: 312 h
Procedure, shortened: (§1)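 Plants were sown in standard soil and grown 8 days in a glasshouse (24/16° C. day/night, 14 hours light, 65% humidity), then sprayed post-emergence at 1000 or 250 g/ha from acetone/water (50:50) with 0.5% Tween 20. Damage was scored visually after 13 days (0 = none, 100 = total).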

Setaria faberi (SETFA) [2] = assay: as above; settings: 312 h
Procedure, shortened: as §1

[3] = system: Amaranthus retoflexus (AMARE); assay: as above; settings: Amaranthus retroflexus, 312 h
Procedure, shortened: as §1

Solanum nigrum (SOLNI) [4] = assay: as above; settings: 312 h
Procedure, shortened: as §1

[5] = system: Ipomea hederaceae (IPOHE); assay: as above; settings: Ipomoea hederacea, 312 h
Procedure, shortened: as §1

[6] = system: Alopecurus myosuroides (ALOMY); assay: as above; settings: 312 h
Procedure, shortened: as §1

[7] = system: Echinochloa crus-galli (ECHCG); assay: Pre-emergence biological efficacy, glasshouse pot test; settings: 312 h
Procedure, shortened: (§2)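 Seeds sown in standard soil in pots, held one day in glasshouse (24/16 °C day/night, 14 h light, 65% humidity), then sprayed with aqueous solution from acetone/water (50:50) formulation with 0.5% Tween 20 at 1000 or 250 g/ha. Damage scored after 13 days (0 = none, 100 = total).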

Setaria faberi (SETFA) [8] = assay: as above; settings: 312 h
Procedure, shortened: as §2

[9] = system: Amaranthus retoflexus (AMARE); assay: as above; settings: Amaranthus retroflexus, 312 h
Procedure, shortened: as §2

Solanum nigrum (SOLNI) [10] = assay: as above; settings: 312 h
Procedure, shortened: as §2

[11] = system: Ipomea hederaceae (IPOHE); assay: as above; settings: Ipomoea hederacea, 312 h
Procedure, shortened: as §2

[12] = system: Alopecurus myosuroides (ALOMY); assay: as above; settings: 312 h
Procedure, shortened: as §2

[13] = Rate 1,000 g/ha, post-emergence spray, evaluated after 13 days (100=total damage to plant; 0=no damage to plant), read-out: Percentage damage caused to weed species, post-emergence, ECHCG
[14] = Rate 1,000 g/ha, post-emergence spray, evaluated after 13 days (100=total damage to plant; 0=no damage to plant), read-out: Percentage damage caused to weed species, post-emergence, SETFA
[15] = Rate 1,000 g/ha, post-emergence spray, evaluated after 13 days (100=total damage to plant; 0=no damage to plant), read-out: Percentage damage caused to weed species, post-emergence, AMARE
[16] = Rate 1,000 g/ha, post-emergence spray, evaluated after 13 days (100=total damage to plant; 0=no damage to plant), read-out: Percentage damage caused to weed species, post-emergence, SOLNI
[17] = Rate 1,000 g/ha, post-emergence spray, evaluated after 13 days (100=total damage to plant; 0=no damage to plant), read-out: Percentage damage caused to weed species, post-emergence, IPOHE
[18] = Rate 1,000 g/ha, post-emergence spray, evaluated after 13 days (100=total damage to plant; 0=no damage to plant), read-out: Percentage damage caused to weed species, post-emergence, ALOMY
[19] = pre-emergence, rate 1,000 g/ha, evaluated after 13 days (100=total damage to plant; 0=no damage), read-out: Percentage damage caused to weed species, ECHCG
[20] = pre-emergence, rate 1,000 g/ha, evaluated after 13 days (100=total damage to plant; 0=no damage), read-out: Percentage damage caused to weed species, SETFA
[21] = pre-emergence, rate 1,000 g/ha, evaluated after 13 days (100=total damage to plant; 0=no damage), read-out: Percentage damage caused to weed species, AMARE
[22] = pre-emergence, rate 1,000 g/ha, evaluated after 13 days (100=total damage to plant; 0=no damage), read-out: Percentage damage caused to weed species, SOLNI
[23] = pre-emergence, rate 1,000 g/ha, evaluated after 13 days (100=total damage to plant; 0=no damage), read-out: Percentage damage caused to weed species, IPOHE
[24] = pre-emergence, rate 1,000 g/ha, evaluated after 13 days (100=total damage to plant; 0=no damage), read-out: Percentage damage caused to weed species, ALOMY
[25] = post-emergence, 1,000 g/ha, evaluated after 13 days (100=total damage; 0=no damage), read-out: Percentage damage caused to weed species, ECHCG
[26] = post-emergence, 1,000 g/ha, evaluated after 13 days (100=total damage; 0=no damage), read-out: Percentage damage caused to weed species, SETFA
[27] = post-emergence, 1,000 g/ha, evaluated after 13 days (100=total damage; 0=no damage), read-out: Percentage damage caused to weed species, AMARE
[28] = post-emergence, 1,000 g/ha, evaluated after 13 days (100=total damage; 0=no damage), read-out: Percentage damage caused to weed species, SOLNI
[29] = post-emergence, 1,000 g/ha, evaluated after 13 days (100=total damage; 0=no damage), read-out: Percentage damage caused to weed species, IPOHE
[30] = post-emergence, 1,000 g/ha, evaluated after 13 days (100=total damage; 0=no damage), read-out: Percentage damage caused to weed species, ALOMY
[31] = pre-emergence, 1,000 g/ha, evaluated after 13 days (100=total damage; 0=no damage), read-out: Percentage damage ECHCG
[32] = pre-emergence, 1,000 g/ha, evaluated after 13 days (100=total damage; 0=no damage), read-out: Percentage damage SETFA
[33] = pre-emergence, 1,000 g/ha, evaluated after 13 days (100=total damage; 0=no damage), read-out: Percentage damage AMARE
[34] = pre-emergence, 1,000 g/ha, evaluated after 13 days (100=total damage; 0=no damage), read-out: Percentage damage SOLNI
[35] = pre-emergence, 1,000 g/ha, evaluated after 13 days (100=total damage; 0=no damage), read-out: Percentage damage IPOHE
[36] = pre-emergence, 1,000 g/ha, evaluated after 13 days (100=total damage; 0=no damage), read-out: Percentage damage ALOMY

| SMILES | pest or weed control at 1000 g/ha [1, 13] [%] | pest or weed control at 1000 g/ha (Setaria faberi (SETFA) [2]; [14]) [%] | pest or weed control at 1000 g/ha [3, 15] [%] | pest or weed control at 1000 g/ha (Solanum nigrum (SOLNI) [4]; [16]) [%] | pest or weed control at 1000 g/ha [5, 17] [%] | pest or weed control at 1000 g/ha [6, 18] [%] | pest or weed control at 1000 g/ha [7, 19] [%] | pest or weed control at 1000 g/ha (Setaria faberi (SETFA) [8]; [20]) [%] | pest or weed control at 1000 g/ha [1, 25] [%] | pest or weed control at 1000 g/ha (Setaria faberi (SETFA) [2]; [26]) [%] | pest or weed control at 1000 g/ha [3, 27] [%] | pest or weed control at 1000 g/ha (Solanum nigrum (SOLNI) [4]; [28]) [%] | pest or weed control at 1000 g/ha [5, 29] [%] | pest or weed control at 1000 g/ha [6, 30] [%] | pest or weed control at 1000 g/ha [7, 31] [%] | pest or weed control at 1000 g/ha (Setaria faberi (SETFA) [8]; [32]) [%] | pest or weed control at 1000 g/ha [9, 33] [%] | pest or weed control at 1000 g/ha (Solanum nigrum (SOLNI) [10]; [34]) [%] | pest or weed control at 1000 g/ha [11, 35] [%] | pest or weed control at 1000 g/ha [12, 36] [%] | other results |
| --- | --- | --- | --- | --- | --- | --- | --- | --- | --- | --- | --- | --- | --- | --- | --- | --- | --- | --- | --- | --- | --- |
| C=CCN(Cc1ccccc1F)c1nc(C2CC2)nc(C(=O)OC)c1Cl [Compound 151-64, 5-Chloro-2-cyclo-propyl-4-[N(2-fluorophenyl)methyl-N-prop-2-enyl-amino]-6-methoxy-carbonylpyrimidine] | 40 | 90 | 100 | 90 | 100 | 10 | 0 | 0 | – | – | – | – | – | – | – | – | – | – | – | – | pest or weed control at 1000 g/ha [9, 21]: 30%; pest or weed control at 1000 g/ha (Solanum nigrum (SOLNI) [10]; [22]): 0%; pest or weed control at 1000 g/ha [11, 23]: 30%; pest or weed control at 1000 g/ha [12, 24]: 0% |
| COC(=O)c1nc(C2CC2)nc(NC2CCC2)c1Cl [Compound 4-32, 5-Chloro-4-cyclobutylamino-2-cyclopropyl-6-methoxycarbonyl-pyrimidine] | – | – | – | – | – | – | – | – | 70 | 90 | 100 | 90 | 100 | 50 | 50 | 80 | 80 | 80 | 80 | 50 | – |
| COC(=O)c1nc(C2CC2)nc(N(C)C(C)C(O)c2ccccc2)c1Cl (stereo not drawn) [Compound 5-270, 5-Chloro-2-cyclopropyl-4-[N-(2-hydroxy-1-methyl-2-phenyl-ethyl)-N-methyl-amino]-6-methoxycarbonyl-pyrimidine] | 0 | 30 | 90 | 80 | 90 | 10 | 0 | 0 | – | – | – | – | – | – | – | – | – | – | – | – | pest or weed control at 1000 g/ha [9, 21]: 90%; pest or weed control at 1000 g/ha (Solanum nigrum (SOLNI) [10]; [22]): 50%; pest or weed control at 1000 g/ha [11, 23]: 20%; pest or weed control at 1000 g/ha [12, 24]: 10% |
| COC(=O)c1nc(C2CC2)nc(N(C)Cc2cccc(Cl)c2)c1Cl [Compound 5-62, 5-Chloro-4-[N-(3-chlorophenyl-methyl)-N-methyl-amino]-2-cyclo-propyl-6-methoxy-carbonylpyrimidine] | 30 | 40 | 100 | 80 | 90 | 20 | 0 | 10 | – | – | – | – | – | – | – | – | – | – | – | – | pest or weed control at 1000 g/ha [9, 21]: 100%; pest or weed control at 1000 g/ha (Solanum nigrum (SOLNI) [10]; [22]): 20%; pest or weed control at 1000 g/ha [11, 23]: 60%; pest or weed control at 1000 g/ha [12, 24]: 0% |
| COC(=O)c1nc(C2CC2)nc(NC(C)c2ccc(C)cc2C)c1Cl (stereo not drawn) [Compound 4-183, 5-Chloro-2-cyclopropyl-4-[1-(2,4-dimethyl-phenyl)ethylamino]-6-methoxycarbonyl-pyrimidine] | – | – | – | – | – | – | – | – | 10 | 20 | 70 | 40 | 60 | 10 | 0 | 0 | 30 | 0 | 20 | 0 | – |
| COC(=O)c1nc(C2CC2)nc(NCc2ccc(C(F)(F)F)nc2)c1Cl [Compound 4-159, 5-Chloro-2-cyclopropyl-6-methoxycarbonyl-4-(2-trifluoromethyl-pyrid-5-yl-methyl-amino)-pyrimidine] | – | – | – | – | – | – | – | – | 80 | 70 | 90 | 80 | 80 | 30 | 30 | 0 | 0 | 20 | 70 | 10 | – |
| CCCOC(=O)c1nc(C2CC2)nc(NCc2ccco2)c1Cl [Compound 198-125, 5-chloro-2-cyclopropyl-4-[(furan-2-ylmethyl)-amino]-6-^npropoxycarbonylpyrimidine] | 80 | 90 | 100 | 90 | 100 | 40 | 80 | 80 | – | – | – | – | – | – | – | – | – | – | – | – | pest or weed control at 1000 g/ha [9, 21]: 100%; pest or weed control at 1000 g/ha (Solanum nigrum (SOLNI) [10]; [22]): 100%; pest or weed control at 1000 g/ha [11, 23]: 100%; pest or weed control at 1000 g/ha [12, 24]: 40% |
| COC(=O)c1nc(C2CC2)nc(NCCc2ccccc2)c1Cl [Compound 4-221, 5-Chloro-2-cyclopropyl-6-methoxycarbonyl-4-(2-phenylethyl-amino)-pyrimidine] | – | – | – | – | – | – | – | – | 40 | 70 | 100 | 80 | 100 | 30 | 60 | 60 | 100 | 90 | 100 | 60 | – |
| COC(=O)c1nc(C2CC2)nc(NCc2ccc(C(F)(F)F)cc2)c1Cl [Compound 4-77, 5-Chloro-2-cyclopropyl-6-methoxycarbonyl-4-(4-trifluoromethyl-phenylmethyl-amino)pyrimidine] | – | – | – | – | – | – | – | – | 90 | 90 | 100 | 100 | 100 | 20 | 30 | 0 | 50 | 40 | 40 | 0 | – |

Reference: patent US20110086759A1, “CHEMICAL COMPOUNDS” (SYNGENTA CROP PROTECTION, INC., priority 2007, published 2011)
